Assay results as given in patent US6420330B1, “Use of quaternary carboxylic acid alkanolamine ester salts as microbicide agents” (Cognis Deutschland GmbH, priority 1997, dated 2002).

Assays:
Test in all cases: DGHM suspension test, microbicidal activity
Assay type in all cases: cell-based
[1] = tested on: Staphylococcus aureus ATCC 6538
Protocol: (§1) The microbicidal activity of the quanterary carboxylic acid alkanolamine ester salts used in accordance with the invention was tested against the following selected test germs:
(§2) The effectiveness of the compound to be tested was determined by the suspension test in accordance with the guidelines of the Deutsche Gesellschaft for Hygiene and Mikrobiologie (DGHM). Test solutions containing quatemary carboxylic acid alkanolamine ester salts in the quantities shown in the Tables of 50, 100, 200, 400 and 800 mg/l were prepared using water with a hardness of 17° dH and optionally isopropanol.
(§3) At room temperatures, quantities of 0.1 ml test germ suspension were pipetted into test tubes containing 10 ml of the test solutions described above and mixed. After various contact times of 5, 15, 30 and 60 minutes, 1 ml of material was taken from the test tubes by pipette and transferred to 9 ml inactivator solution (inactivators: 3.0% Tween, 0.3% lecithin, 0.1% histidine). After in activation for at least 5 and at most 30 minutes, the living germ count was determined by plating out onto casein peptone-soybean flour peptone (CaSo)-agar plates. Using a spiral plater, the inactivating mixture was directly plated out onto CaSo-agar. The samples were incubated for 24 to 72 hours at 37° C. and macroscopically evaluated for growth. The destruction time or the residual germ count was determined in this way. The germ count of an unchallenged water control is related to the germ count of the inactivated test solution taking the dilution into account. The higher the value, the better the microbicidal effect. The symbol < means that the logarithmic reductuon factor is below the indicated value or, in the case of the symbol >, above the indicated value. The abbreviation CU stands for “concentration used”.

[2] = tested on: Candida albicans ATCC 10231
Protocol: as §1, §2, §3

[3] = tested on: Pseudomonas aeruginosa ATCC 15442
Protocol: as §1, §2, §3

[4] = CU 50 mg/l, contact time 5 mins.
[5] = CU 50 mg/l, contact time 15 mins.
[6] = CU 50 mg/l, contact time 30 mins.
[7] = CU 50 mg/l, contact time 60 mins.
[8] = CU 100 mg/l, contact time 5 mins.
[9] = CU 100 mg/l, contact time 15 mins.
[10] = CU 100 mg/l, contact time 30 mins.
[11] = CU 100 mg/l, contact time 60 mins.
[12] = CU 200 mg/l, contact time 5 mins.
[13] = CU 200 mg/l, contact time 15 mins.
[14] = CU 200 mg/l, contact time 30 mins.
[15] = CU 200 mg/l, contact time 60 mins.
[16] = CU 400 mg/l, contact time 5 mins.
[17] = CU 400 mg/l, contact time 15 mins.
[18] = CU 400 mg/l, contact time 30 mins.
[19] = CU 400 mg/l, contact time 60 mins.
[20] = CU 800 mg/l, contact time 5 mins.
[21] = CU 800 mg/l, contact time 15 mins.
[22] = CU 800 mg/l, contact time 30 mins.
[23] = CU 800 mg/l, contact time 60 mins.

`CCCCCCCCCC(=O)OCC[N+](C)(CCO)CCOC(=O)CCCCCCCCC.COS(=O)(=O)[O-]` [Example 6, methyl triethanolammonium dicapric acid ester methosulfate] showed a logarithmic reduction factor [1, 4] of 4.12, a logarithmic reduction factor [1, 5] greater than 5.73 and a logarithmic reduction factor [1, 6] greater than 5.75. The logarithmic reduction factor [1, 7] was greater than 5.86, the logarithmic reduction factor [1, 8] was 4.58 and the logarithmic reduction factor [1, 9] was greater than 5.73. It also gave a logarithmic reduction factor [1, 10] greater than 5.75, a logarithmic reduction factor [1, 11] greater than 5.86 and a logarithmic reduction factor [1, 12] of 4.55. It also gave a logarithmic reduction factor [1, 13] greater than 5.73, a logarithmic reduction factor [1, 14] greater than 5.75 and a logarithmic reduction factor [1, 15] greater than 5.86. It also gave a logarithmic reduction factor [1, 16] of 4.48, a logarithmic reduction factor [1, 17] greater than 5.73 and a logarithmic reduction factor [1, 18] greater than 5.75. It also gave a logarithmic reduction factor [1, 19] greater than 5.86, a logarithmic reduction factor [1, 20] of 5.44 and a logarithmic reduction factor [1, 21] greater than 5.73. The logarithmic reduction factor [1, 22] was greater than 5.75, the logarithmic reduction factor [1, 23] was greater than 5.86 and the logarithmic reduction factor [2, 4] was less than 0.87. For the same molecule, the logarithmic reduction factor [2, 5] was 1.64, the logarithmic reduction factor [2, 6] was 1.93 and the logarithmic reduction factor [2, 7] was 2.62. It also gave a logarithmic reduction factor [2, 8] of 1.27, a logarithmic reduction factor [2, 9] of 3.03 and a logarithmic reduction factor [2, 10] of 3.75. For the same molecule, the logarithmic reduction factor [2, 11] was 4.15, the logarithmic reduction factor [2, 12] was 1.24 and the logarithmic reduction factor [2, 13] was 3.66. For the same molecule, the logarithmic reduction factor [2, 14] was greater than 4.78, the logarithmic reduction factor [2, 15] was greater than 4.67 and the logarithmic reduction factor [2, 16] was 1.38. The logarithmic reduction factor [2, 17] was 3.51, the logarithmic reduction factor [2, 18] was greater than 4.78 and the logarithmic reduction factor [2, 19] was greater than 4.67. It also gave a logarithmic reduction factor [2, 20] of 1.33, a logarithmic reduction factor [2, 21] greater than 4.87 and a logarithmic reduction factor [2, 22] greater than 4.78. For the same molecule, the logarithmic reduction factor [2, 23] was greater than 4.67, the logarithmic reduction factor [3, 4] was less than 1.85 and the logarithmic reduction factor [3, 5] was less than 1.79. It also gave a logarithmic reduction factor [3, 6] of less than 1.71, a logarithmic reduction factor [3, 7] of less than 1.81 and a logarithmic reduction factor [3, 8] of less than 1.85. It also gave a logarithmic reduction factor [3, 9] of less than 1.79, a logarithmic reduction factor [3, 10] of less than 1.71 and a logarithmic reduction factor [3, 11] of 3.19. It also gave a logarithmic reduction factor [3, 12] of less than 1.85, a logarithmic reduction factor [3, 13] of less than 1.79 and a logarithmic reduction factor [3, 14] of 3.35. It also gave a logarithmic reduction factor [3, 15] of 3.89, a logarithmic reduction factor [3, 16] of less than 1.85 and a logarithmic reduction factor [3, 17] of less than 1.79. The logarithmic reduction factor [3, 18] was 4.18, the logarithmic reduction factor [3, 19] was greater than 5.81 and the logarithmic reduction factor [3, 20] was less than 1.85. For the same molecule, the logarithmic reduction factor [3, 21] was 4.14, the logarithmic reduction factor [3, 22] was 4.76 and the logarithmic reduction factor [3, 23] was greater than 5.81.
`CCCCCCCC(=O)OCC[N+](C)(CCO)CCOC(=O)CCCCCCC.COS(=O)(=O)[O-]` [Example 7, Methyl triethanolammonium dicaprylic acid ester methosulfate] gave a logarithmic reduction factor [1, 4] greater than 5.75, a logarithmic reduction factor [1, 5] greater than 5.53 and a logarithmic reduction factor [1, 6] greater than 5.42. The logarithmic reduction factor [1, 7] was greater than 5.69, the logarithmic reduction factor [1, 8] was greater than 5.75 and the logarithmic reduction factor [1, 9] was greater than 5.53. The logarithmic reduction factor [1, 10] was greater than 5.42, the logarithmic reduction factor [1, 11] was greater than 5.69 and the logarithmic reduction factor [1, 12] was greater than 5.75. The logarithmic reduction factor [1, 13] was greater than 5.53, the logarithmic reduction factor [1, 14] was greater than 5.42 and the logarithmic reduction factor [1, 15] was greater than 5.69. For the same molecule, the logarithmic reduction factor [1, 16] was greater than 5.75, the logarithmic reduction factor [1, 17] was greater than 5.53 and the logarithmic reduction factor [1, 18] was greater than 5.42. It also gave a logarithmic reduction factor [1, 19] greater than 5.69, a logarithmic reduction factor [1, 20] greater than 5.75 and a logarithmic reduction factor [1, 21] greater than 5.53. It also gave a logarithmic reduction factor [1, 22] greater than 5.42, a logarithmic reduction factor [1, 23] greater than 5.69 and a logarithmic reduction factor [2, 4] greater than 4.31. For the same molecule, the logarithmic reduction factor [2, 5] was greater than 4.18, the logarithmic reduction factor [2, 6] was greater than 4.16 and the logarithmic reduction factor [2, 7] was greater than 4.27. It also gave a logarithmic reduction factor [2, 8] greater than 4.31, a logarithmic reduction factor [2, 9] greater than 4.18 and a logarithmic reduction factor [2, 10] greater than 4.16. For the same molecule, the logarithmic reduction factor [2, 11] was greater than 4.27, the logarithmic reduction factor [2, 12] was greater than 4.31 and the logarithmic reduction factor [2, 13] was greater than 4.18. It also gave a logarithmic reduction factor [2, 14] greater than 4.16, a logarithmic reduction factor [2, 15] greater than 4.27 and a logarithmic reduction factor [2, 16] greater than 4.31. The logarithmic reduction factor [2, 17] was greater than 4.18, the logarithmic reduction factor [2, 18] was greater than 4.16 and the logarithmic reduction factor [2, 19] was greater than 4.27. The logarithmic reduction factor [2, 20] was greater than 4.31, the logarithmic reduction factor [2, 21] was greater than 4.18 and the logarithmic reduction factor [2, 22] was greater than 4.16. For the same molecule, the logarithmic reduction factor [2, 23] was greater than 4.27, the logarithmic reduction factor [3, 4] was less than 1.77 and the logarithmic reduction factor [3, 5] was less than 1.72. The logarithmic reduction factor [3, 6] was less than 1.76, the logarithmic reduction factor [3, 7] was 3.65 and the logarithmic reduction factor [3, 8] was 3.64. The logarithmic reduction factor [3, 9] was greater than 5.72, the logarithmic reduction factor [3, 10] was greater than 5.76 and the logarithmic reduction factor [3, 11] was greater than 5.86. The logarithmic reduction factor [3, 12] was 4.59, the logarithmic reduction factor [3, 13] was greater than 5.72 and the logarithmic reduction factor [3, 14] was 5.76. For the same molecule, the logarithmic reduction factor [3, 15] was greater than 5.86, the logarithmic reduction factor [3, 16] was 5.32 and the logarithmic reduction factor [3, 17] was greater than 5.72. It also gave a logarithmic reduction factor [3, 18] greater than 5.76, a logarithmic reduction factor [3, 19] greater than 5.86 and a logarithmic reduction factor [3, 20] greater than 5.77. The logarithmic reduction factor [3, 21] was greater than 5.72, the logarithmic reduction factor [3, 22] was greater than 5.76 and the logarithmic reduction factor [3, 23] was greater than 5.86.
`CCCCCCCCCC(=O)OCC[N+](C)(C)CCOC(=O)CCCCCCCCC.COS(=O)(=O)[O-]` [Example 10, dimethyl diethanolammonium dicapric acid ester methosulfate] was tested, and the logarithmic reduction factor [1, 8] was greater than 5.56, the logarithmic reduction factor [1, 9] was greater than 5.55 and the logarithmic reduction factor [1, 10] was greater than 5.72. The logarithmic reduction factor [1, 11] was greater than 5.69, the logarithmic reduction factor [1, 12] was greater than 5.56 and the logarithmic reduction factor [1, 13] was greater than 5.55. The logarithmic reduction factor [1, 14] was greater than 5.72, the logarithmic reduction factor [1, 15] was greater than 5.69 and the logarithmic reduction factor [1, 16] was greater than 5.56. For the same molecule, the logarithmic reduction factor [1, 17] was greater than 5.55, the logarithmic reduction factor [1, 18] was greater than 5.72 and the logarithmic reduction factor [1, 19] was greater than 5.69. The logarithmic reduction factor [2, 4] was 2.87, the logarithmic reduction factor [2, 5] was greater than 4.84 and the logarithmic reduction factor [2, 6] was greater than 4.89. The logarithmic reduction factor [2, 7] was greater than 4.80, the logarithmic reduction factor [2, 8] was 4.27 and the logarithmic reduction factor [2, 9] was greater than 4.84. It also gave a logarithmic reduction factor [2, 10] greater than 4.89, a logarithmic reduction factor [2, 11] greater than 4.80 and a logarithmic reduction factor [3, 8] of 3.11. The logarithmic reduction factor [3, 9] was 3.48, the logarithmic reduction factor [3, 10] was 3.95 and the logarithmic reduction factor [3, 11] was 4.84. It also gave a logarithmic reduction factor [3, 12] of 3.54, a logarithmic reduction factor [3, 13] of 4.51 and a logarithmic reduction factor [3, 14] of 5.50. It also gave a logarithmic reduction factor [3, 15] of 5.44, a logarithmic reduction factor [3, 16] of 4.31 and a logarithmic reduction factor [3, 17] of 5.04. The logarithmic reduction factor [3, 18] was 5.64 and the logarithmic reduction factor [3, 19] was greater than 5.79.
